logFC.mWT.over.mEQ data for 15 substances are collected here from patent US20240368668A1, “SUBSTRATES AND BIOMARKERS OF ADAMTS7” (The Broad Institute, Inc., priority 2021, published 2024).

For this assay, the system named is mouse ADAMTS7. The assay is described as follows: TMT10 TAILS N-terminomics, HUVEC experiment (process replicates, trypsin/AspN digest). The assay is classed as cell-based, human. Conditions: HUVEC TAILS HC; log fold change of N-terminal peptide, Ad-mADAMTS7 WT over EQ. The method in brief:
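Full-length mouse ADAMTS7 (WT or E373Q mutant, C-terminal 3xFLAG) or luciferase was transduced via adenovirus, 50 MOI, into HCA-SMC (SMC1, SMC2) or HUVEC. SMC1: pooled media, technical triplicates 400 ug; SMC2: process triplicates 300 ug; HUVEC: process triplicates 200 ug, bFGF2 10 ng/ml.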
In turn, “COL18A1_1505 (LQPPVVQLHDSNPYPR; listed as Homo sapiens)” returned a logFC.mWT.over.mEQ of 3.88.
The result for “LTBP2_79 (VAGLQPVER; listed as Homo sapiens)” reads 1.51; that for “LTBP2_250 (SAAGEGTLAR; listed as Homo sapiens)”, 1.71.
The substance “LTBP2_502 (LVENSVETRPPPWLPASPGHSLW; listed as Homo sapiens)” yielded a logFC.mWT.over.mEQ of 2.68.
Substance “LTBP3_208 (FLVPLGPGQISA; listed as Homo sapiens)” gave a logFC.mWT.over.mEQ of 2.14.
The result for “MAP4_815 (AVASTGPSSR; listed as Homo sapiens)” reads 2.51; that for “MAP4_816 (VASTGPSSR; listed as Homo sapiens)”, 2.05; that for “NID1_360 (FHQQHPQVI; listed as Homo sapiens)”, 1.78.
The substance “NID2_291 (HSSVPLGR; listed as Homo sapiens)” yielded a logFC.mWT.over.mEQ of 2.90.
As to “NUCB1_317 (FLASTQR; listed as Homo sapiens)”, the logFC.mWT.over.mEQ came out at 2.65.
The figure for “NUCB1_389 (LQQAVLHMEQR; listed as Homo sapiens)” is 1.54; for “SERBP1_56 (QAAAQTNSNAAGKQLR; listed as Homo sapiens)” it is 1.43.
“SPOCK1_27 (LAGGAGPNHGNFL; listed as Homo sapiens)” returned a logFC.mWT.over.mEQ of 1.07.
As for “SRGN_59 (LLPGESNKIPR; listed as Homo sapiens)”, the logFC.mWT.over.mEQ was 1.17.
For “THBS2_290 (LSENLKR; listed as Homo sapiens)”, the logFC.mWT.over.mEQ was 4.41.
